Test results from publication PMC5312080 (mBio, 2017).
≈ marks a conversion by molar mass, not a printed value. Where “and” joins values, the source holds several entries; their conditions need not be identical. Equal values may be shown once. Read-outs that look alike come from different tables or passages of the source.

Legend:
M. tuberculosis H37Rv [1] = experiment: Checkerboard alamarBlue compound interaction assay; type: cell-based, Mycobacterium tuberculosis; conditions: for MIC: Mycobacterium tuberculosis, H37RV, drug alone, checkerboard; for FIC category / FIC index (∑FIC): combination of the named drug with DG70
BCG = type: cell-based, Mycobacterium bovis BCG
M. tuberculosis H37Rv [2] = experiment: Microdilution alamarBlue assay (MABA) MIC; type: cell-based; conditions: Mycobacterium tuberculosis
in vitro [3] = conditions: African green monkey
Brucella neotomae = experiment: microbe, parasite or virus in culture; type: cell-based
S. epidemis 14490 = experiment: MABA MIC; type: cell-based; conditions: Staphylococcus epidermidis
[4] = test system: nonreplicating M. tuberculosis; type: cell-based, Mycobacterium tuberculosis; conditions: for reduction of CFU: 7 days, M. tuberculosis starved 6 weeks in PBS
Legionella pneumophila = experiment: microbe, parasite or virus in culture; type: cell-based
Pseudomonas aeruginosa = experiment: MABA MIC; type: cell-based
Klebsiella pneumoniae = experiment: MABA MIC; type: cell-based
[5] = test system: BCG overexpressing menG_F118L; type: cell-based; conditions: 20 µg/ml of DG70, 7 days, CFU
in vitro [6] = conditions: mouse, microsomes
Francisella philomiragia = experiment: microbe, parasite or virus in culture; type: cell-based
S. aureus MRSA = experiment: MABA MIC; type: cell-based; conditions: Staphylococcus aureus
M. avium = experiment: MABA MIC; type: cell-based, Mycobacterium avium subsp. avium; conditions: Mycobacterium avium
E. faecium = experiment: MABA MIC; type: cell-based; conditions: Enterococcus faecium
[7] = test system: menaquinone biosynthesis (MenG); type: cell-based, Mycobacterium bovis BCG
[8] = test system: nontuberculous mycobacteria (NTM); experiment: organism not typed; type: cell-based
A. baumanii = experiment: MABA MIC; type: cell-based; conditions: Acinetobacter baumannii
M. smegmatis = experiment: MABA MIC; type: cell-based, Mycobacterium smegmatis; conditions: Mycolicibacterium smegmatis
[9] = test system: Yersinia pseudotuberculosis; experiment: microbe, parasite or virus in culture; type: cell-based
Burkholderia cepacia = experiment: MABA MIC; type: cell-based
ATP synthesis in BCG = type: cell-based, Mycobacterium bovis BCG
[10] = test system: PcydAB promoter (cydAB operon) reporter; type: cell-based, Mycobacterium bovis BCG
[11] = test system: M. tuberculosis mc^26206 in J774A.1 murine macrophages; type: cell-based; conditions: J774A.1 macrophages, 3 days, concentrations equivalent to in vitro MIC
Bacillus cereus = experiment: MABA MIC; type: cell-based
E. cloacae = experiment: MABA MIC; type: cell-based; conditions: Enterobacter cloacae
[12] = test system: BCG::pMV306PHsp60 strains overexpressing menG; type: cell-based, Mycobacterium bovis BCG
M. bovis BCG = experiment: microbe, parasite or virus in culture; type: cell-based; conditions: Mycobacterium tuberculosis variant bovis BCG
M. marinum = experiment: MABA MIC; type: cell-based; conditions: Mycobacterium marinum
M. abcessus = experiment: MABA MIC; type: cell-based, Mycobacterium abscessus; conditions: Mycobacteroides abscessus
[13] = test system: mycobacterial oxygen consumption; experiment: Oxygen consumption, methylene blue decolorization; type: cell-based
M. fortuitum = experiment: MABA MIC; type: cell-based, Mycobacterium fortuitum; conditions: Mycolicibacterium fortuitum
[14] = test system: menaquinone biosynthesis (MenG); type: cell-based, Mycobacterium bovis BCG; remark: listed apart in the source
[15] = FIC of the anti-TB drug in combination with DG70
[16] = anti-TB drug in combination with DG70
[17] = Table S2, parent H37Rv, read-out: MIC in Mtb H37Rv
[18] = whole-cell activity versus M. tuberculosis, […], read-out: MIC

O=[N+]([O-])c1cn2c(n1)OC[C@@H](OCc1ccc(OC(F)(F)F)cc1)C2 [PA824]
FIC (M. tuberculosis H37Rv [1]; [15]): 1.0 | MIC (M. tuberculosis H37Rv [1]): 0.1 µM | MIC In combination (M. tuberculosis H37Rv [1]; [16]): 0.1 µM | FIC category (M. tuberculosis H37Rv [1]): additive (>0.5 to ≤1, additive) | FIC index (∑FIC) (M. tuberculosis H37Rv [1]): 1.0 | regrowth after (BCG): 10 days | time of treatment to sterile cultures (no CFU detected) (BCG): 10 days

COc1ccc(NC(=O)c2ccc(F)cc2Cl)cc1-c1ccccc1 [JSF-2971]
MIC (M. tuberculosis H37Rv [2]; [17]): 9.6 µg/mL (≈ 27 µM) | MIC (M. tuberculosis H37Rv [2]; [18]): 9.6 µg/mL (≈ 27 µM) | CC50 (in vitro [3]): > 50 µg/mL

CC[C@@H](CO)NCCN[C@@H](CC)CO [EMB, ethambutol]
FIC (M. tuberculosis H37Rv [1]; [15]): 0.5 | MIC (M. tuberculosis H37Rv [1]): 6.25 µM | MIC In combination (M. tuberculosis H37Rv [1]; [16]): 3.12 µM | FIC category (M. tuberculosis H37Rv [1]): additive (>0.5 to ≤1, additive) | FIC index (∑FIC) (M. tuberculosis H37Rv [1]): 0.6

COc1ccc(-c2cc(NC(=O)c3ccccc3Cl)ccc2OC)cc1 [JSF-2908]
MIC (M. tuberculosis H37Rv [2]; [17]): 4.8 µg/mL (≈ 13 µM) | MIC (M. tuberculosis H37Rv [2]; [18]): 4.8 µg/mL (≈ 13 µM) | CC50 (in vitro [3]): 50 µg/mL (≈ 136 µM)

CO[C@H]1/C=C/O[C@@]2(C)Oc3c(C)c(O)c4c(O)c(c(/C=N/N5CCN(C)CC5)c(O)c4c3C2=O)NC(=O)/C(C)=C\C=C\[C@H](C)[C@H](O)[C@@H](C)[C@@H](O)[C@@H](C)[C@H](OC(C)=O)[C@@H]1C [RIF, rifampin]
FIC (M. tuberculosis H37Rv [1]; [15]): 0.25 | MIC (M. tuberculosis H37Rv [1]): 0.02 µM | MIC In combination (M. tuberculosis H37Rv [1]; [16]): 0.005 µM | FIC category (M. tuberculosis H37Rv [1]): synergistic (≤0.5, synergistic) | FIC index (∑FIC) (M. tuberculosis H37Rv [1]): 0.5

COc1ccc(-c2cc(NC(=O)c3ccc(F)cc3Cl)ccc2OC)cc1 [DG70, 2-chloro-N-(4',6-dimethoxy-[1,1'-biphenyl]-3-yl)-4-fluorobenzamide]
MIC (Brucella neotomae): > 40 µg/mL | MIC (S. epidemis 14490): > 20 µg/mL | effect of MK4 on killing of nutrient-deprived M. tuberculosis ([4]; 400 µM MK4): reversed | reduction of CFU ([4]; 5× MIC): 4 log10 | reduction of CFU ([4]; 10× MIC): 6.5 log10 | MIC (Legionella pneumophila): > 40 µg/mL | MIC (Pseudomonas aeruginosa): > 20 µg/mL | MIC (Klebsiella pneumoniae): > 20 µg/mL | growth inhibition of strain overexpressing menG_F118L [5]: completely resistant | microsomal CLint (in vitro [6]): 921 µL/min/mg | MIC In combination (M. tuberculosis H37Rv [1]; DG70 in combination with BDQ): 1.5 µM | MIC In combination (M. tuberculosis H37Rv [1]; DG70 in combination with EMB): 1.5 µM | MIC In combination (M. tuberculosis H37Rv [1]; DG70 in combination with INH): 3.12 µM | MIC In combination (M. tuberculosis H37Rv [1]; DG70 in combination with PA824): 0.35 µM | MIC In combination (M. tuberculosis H37Rv [1]; DG70 in combination with RIF): 3.1 µM | MIC In combination (M. tuberculosis H37Rv [1]; DG70 in combination with THZ): 3.12 µM | FIC (M. tuberculosis H37Rv [1]; FIC of DG70 in combination with BDQ): 0.1 | FIC (M. tuberculosis H37Rv [1]; FIC of DG70 in combination with EMB): 0.12 | FIC (M. tuberculosis H37Rv [1]; FIC of DG70 in combination with INH): 0.2 | FIC (M. tuberculosis H37Rv [1]; FIC of DG70 in combination with PA824): 0.03 | FIC (M. tuberculosis H37Rv [1]; FIC of DG70 in combination with RIF): 0.25 | FIC (M. tuberculosis H37Rv [1]; FIC of DG70 in combination with THZ): 0.2 | MIC (M. tuberculosis H37Rv [1]): 12.5 µM | MIC (Francisella philomiragia): > 40 µg/mL | MIC (S. aureus MRSA): > 20 µg/mL | MIC (M. avium): > 40 µg/mL | MIC90 (M. tuberculosis H37Rv [2]; H37Rv + 400 µM MK4, read-out: MIC90): 9.6 µg/mL | MIC90 (M. tuberculosis H37Rv [2]; H37Rv, lab strain, […], read-out: MIC90): 4.8 µg/mL (≈ 12.4 µM) | MIC (M. tuberculosis H37Rv [2]; M. tuberculosis (Table S1), read-out: MIC): 4.8 µg/mL (≈ 12.4 µM) | MIC (M. tuberculosis H37Rv [2]; [17]): 2.4 µg/mL (≈ 6.22 µM) | MIC (M. tuberculosis H37Rv [2]; [18]): 2.4 µg/mL (≈ 6.22 µM) | CC50 (in vitro [3]; 50% cytotoxic concentration (CC50), Vero cells): > 77 µg/mL | CC50 (in vitro [3]; CC50, Vero cells, 48 h, MTT): > 80 µg/mL | MIC (E. faecium): > 20 µg/mL | [14C]methyl incorporation into menaquinone [7]: complete suppression | MIC [8]: > 100 µM | activity against NTM and other bacteria [8]: lacked activity | MIC (A. baumanii): > 20 µg/mL | MIC (M. smegmatis): > 40 µg/mL | effect of MK4 pretreatment on bactericidal activity (BCG): could be reversed | killing (drop in CFU) over 21 days (BCG): 5 log10 | killing in 4 days (BCG): less than 1 log10 | reduction of cultures after 2 days of treatment (BCG): ≤ 1 log10 | MIC [9]: > 40 µg/mL | MIC (Burkholderia cepacia): > 40 µg/mL | effect of MK4 supplementation on inhibition of ATP synthesis (ATP synthesis in BCG): rescued | intracellular ATP levels (ATP synthesis in BCG): significant decrease in ATP levels | peak PcydAB induction [10]: 3.1 fold | intracellular M. tuberculosis growth in macrophages [11]: inhibited intracellular M. tuberculosis growth | MIC (Bacillus cereus): > 40 µg/mL | MIC (E. cloacae): > 20 µg/mL | increase of DG70 MIC on overexpression of menG [12]: 4 × | MIC (M. bovis BCG): 2.4 µg/mL (≈ 6.22 µM) | MIC (M. marinum): > 40 µg/mL | MIC (M. abcessus): > 40 µg/mL | oxygen consumption (methylene blue decolorization at 665 nm) [13]: strongly prevented decolorization of methylene blue | effect of MK4 supplementation on inhibition of oxygen consumption ([13]; 400 µM MK4): rescued | MIC (M. fortuitum): > 40 µg/mL

O=C(Nc1cccc(-c2ccccc2)c1)c1ccc(F)cc1Cl [JSF-2910]
MIC (M. tuberculosis H37Rv [2]; [17]): 9.6 µg/mL (≈ 29.5 µM) | MIC (M. tuberculosis H37Rv [2]; [18]): 9.6 µg/mL (≈ 29.5 µM) | CC50 (in vitro [3]): > 50 µg/mL

NNC(=O)c1ccncc1 [INH, isoniazid]
day by which cultures were completely sterilized [4]: ≤ 10 days | FIC (M. tuberculosis H37Rv [1]; [15]): 0.2 | MIC (M. tuberculosis H37Rv [1]): 0.39 µM | MIC In combination (M. tuberculosis H37Rv [1]; [16]): 0.09 µM | FIC category (M. tuberculosis H37Rv [1]): synergistic (≤0.5, synergistic) | FIC index (∑FIC) (M. tuberculosis H37Rv [1]): 0.4 | MIC90 (M. tuberculosis H37Rv [2]): 0.05 µg/mL (≈ 0.365 µM) | [14C]methyl incorporation into menaquinone [7]: no such effect | regrowth after (BCG): 7 days | time of treatment to sterile cultures (no CFU detected) (BCG): 10 days | MIC90 (M. bovis BCG): 0.05 µg/mL (≈ 0.365 µM) | oxygen consumption (methylene blue decolorization at 665 nm) [13]: clearly decolorized methylene blue | MK9/DMK9 [14]: 3.8 and 2.9

COc1ccc(-c2cc(N(C)C(=O)c3ccc(F)cc3Cl)ccc2OC)cc1 [JSF-2949]
MIC (M. tuberculosis H37Rv [2]; [17]): 39.5 µg/mL (≈ 98.8 µM) | MIC (M. tuberculosis H37Rv [2]; [18]): 39 µg/mL (≈ 97.5 µM) | CC50 (in vitro [3]): 24 µg/mL (≈ 60 µM)
